Source: US12268682B2, “Anticancer drug FL118 formulation for treatment of human cancer” (CANGET BIOTEKPHARMA, LLC, priority 2019, dated 2025)
Read-outs that look alike come from different tables or passages of the source.

How the values were obtained:
[1] = test system: primary MM cells; test: Flow cytometry-based ex vivo assay using BMMNCs from MM patients; format: cell-based, human
Procedure: Flow cytometry-based […] assays using BMMNCs: Cryopreserved BMMNCs derived from MM patients were incubated on a monolayer of 2×10^4 BMMSCs for 16 till 24 hours and subsequently treated with FL118 ([…]) and/or, melphalan (5-10 μM/L), bortezomib (2-3 nmol/L) for 48 hours. Concerning immunotherapy, treatment included FL118 (10 or 100 nM) and/or daratumumab, or CAR T-cells for 24 hours. BMMNC samples contained sufficient numbers of functional effector cells to induce antibody-mediated plasma cell lysis. At the end of treatment, after addition of flow-count fluorospheres (Beckman Coulter), adherent cells were detached with Accutase, blocked with human immunoglobulin (100 μg/mL, Sanquin), and stained for CD38, CD138, CD45 (Beckman Coulter) and live/dead cell marker (LIVE/DEAD Fixable Near-111; Life Technologies) to determine absolute numbers of viable MM cells using flow cytometry. The percentage lysis was then calculated using the following formula: % lysis cells=1−absolute number of viable CD138^+ CD38^+ CD45^dim MM cells in treated wells/mean absolute number of viable CD138^+ CD38^+ CD45^dim MM cells in untreated wells×100%.

[2] = test system: UM9 MM tumors; test: In vivo efficacy in humanized xenograft RAG2-/-γc-/- model; parameters: species or system mice
Procedure: In vivo efficacy of FL118: The in vivo efficacy of FL118 was studied in a xenograft RAG2^−/−γc^−/− marine model in which human MM cells are grown in a humanized BM like microenvironment generated by subcutaneous inoculation of MSC coated Hybrid scaffolds (4 scaffolds per mice) as described elsewhere (Groen R W, et al. Blood 2012,120:e9-e16). 24 hours before tumor inoculation (UM9; 5×10^5 cells/scaffold) mice were pre-conditioned with 18 mg/kg Busilvex. One week after inoculation, when there was visible tumor growth in all scaffolds by BLI, mice were randomly divided in four groups which were treated as follows: (1) vehicle control (n=3); (2) 0.05 mg/kg FL118 (n=4); (3) 0.1 mg/kg FL118 (n=4); (4) 0.2 mg/kg FL118 (n=4). FL118 or vehicle was administrated i.v. daily for five times. Tumor growth was monitored by weekly BLI measurements as previously described (Groen R W, et al. Blood 2012,120:e9-e16). All animal experiments were conducted for animal experimentation and were in compliance with the Dutch Animal Experimentation Act.

[3] = test system: T-cells and NK-cells; test: Toxicity of FL118 on immune effector cells; format: cell-based, human; settings: up to 100 nM
Procedure: Toxicity of FL118 on immune effector cells: Cryopreserved BMMNCs derived from MM patients or plasma cell leukemia (PCL) patients, were treated with various concentrations of FL118. After 24 hours, viable CD45^+ CD3^+ T-cells and CD45^+ CD56^+ CD14^− CD3^− NK-cells were enumerated by multiparameter flow cytometry. Additionally, healthy-donor peripheral blood mononuclear cells (PBMCs) were seeded in 96-well flat-bottom plates at 1×10^5 cells/well, stimulated with PMA (25 ng/mL) and ionomycin (500 ng/mL) (both Santa Cruz Biotechnology) for 24 hours, and subsequently treated with FL118 for 48 hours before determining activated CD45^+ CD3^+ CD56^− CD25^+ T-cells by flow cytometry. The percentage cell survival was then calculated using the following formula: % immune cell survival=absolute number of viable immune cells in treated wells/mean absolute number of viable immune cells in untreated wells×100%.

[4] = molecular target: topoisomerase I (Top1) (Homo sapiens, UniProt P11387); settings: cited from earlier work
[5] = test system: cancer cell growth; settings: cited from earlier work
[6] = BALE/cj mice; cited from earlier work
[7] = beagle dogs; cited from earlier work
[8] = test system: human tumors; settings: cited from earlier work
[9] = test system: cisplatin-resistant pancreatic cancer cells; settings: cited from earlier work
[10] = primary BMMNC samples, 48 hours
[11] = 0.2 mg/kg i.v. daily for five times

Sequence of topoisomerase I (Top1) (P11387 whole entry, species assumed): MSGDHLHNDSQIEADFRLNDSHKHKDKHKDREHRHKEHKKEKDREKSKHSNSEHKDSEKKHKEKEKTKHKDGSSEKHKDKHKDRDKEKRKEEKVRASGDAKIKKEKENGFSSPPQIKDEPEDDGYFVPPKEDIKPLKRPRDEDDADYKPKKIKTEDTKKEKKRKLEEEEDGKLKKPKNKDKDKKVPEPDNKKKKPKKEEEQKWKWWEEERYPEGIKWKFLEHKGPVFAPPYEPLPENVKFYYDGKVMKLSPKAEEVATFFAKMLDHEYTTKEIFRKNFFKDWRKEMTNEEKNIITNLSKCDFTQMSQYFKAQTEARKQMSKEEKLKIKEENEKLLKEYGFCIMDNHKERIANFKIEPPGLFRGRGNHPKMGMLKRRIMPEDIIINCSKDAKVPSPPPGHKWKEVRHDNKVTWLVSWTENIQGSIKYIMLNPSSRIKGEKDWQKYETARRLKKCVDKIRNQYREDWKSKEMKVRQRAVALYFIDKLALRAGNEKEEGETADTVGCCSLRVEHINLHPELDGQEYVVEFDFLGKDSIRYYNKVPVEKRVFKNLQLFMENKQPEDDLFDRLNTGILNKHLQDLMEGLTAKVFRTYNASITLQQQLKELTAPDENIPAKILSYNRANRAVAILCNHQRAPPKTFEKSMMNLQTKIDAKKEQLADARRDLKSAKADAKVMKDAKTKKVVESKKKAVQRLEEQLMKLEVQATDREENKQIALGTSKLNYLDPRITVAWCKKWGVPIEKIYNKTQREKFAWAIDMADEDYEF

With CC[C@@]1(O)C(=O)OCc2c1cc1n(c2=O)Cc2cc3cc4c(cc3nc2-1)OCO4 [FL118] the “combination of FL118 with CAR T-cells, observed versus expected lysis” value ([1]; 10 nM FL118, BLISS model) was “synergistic fashion”, the “patient MM cell lysis by CAR T-cells in the presence of BMMSCs” value ([1]; 10 nM FL118, E:T ratio 1:1, 24 hours) was “significantly enhanced” and the “anti-MM activity of FL118 alone” value ([1]; 10 nM, 24 hours, patient-derived MM cells) was “no/minimal anti-MM activity”. For the same molecule, the “BMMSC-mediated protection against daratumumab-induced MM cell lysis” value ([1]; 100 nM FL118, 10 μg/mL daratumumab, 24 hours) was “abrogated”, the “efficacy in RR patient samples compared to ND patient samples” value ([1]; 100 nmol/L, 24 hours, 12 RR and 15 ND) was “significantly more effective” and the “FL118-induced MM cell lysis” value ([1]; 100 nmol/L, 24 hours, in 15 of 27 patient samples) was at least 20%. The “interaction between FL118 and daratumumab in the presence of BMMSCs” value ([1]; observed versus expected lysis) was “synergistic”, the “combination effect with bortezomib (Bliss model)” value [1, 10] was “additive effects” and the “combination effect with melphalan (Bliss model)” value [1, 10] was “synergistic effects”. For the same molecule, the “delay of tumor outgrowth” value [2, 11] was “up to 5 weeks”, the “effect on initial tumor volume” value [2, 11] was “reduce the initial tumor volume” and the “in vivo anti-MM activity” value ([2]; 0.05, 0.1, 0.2 mg/kg i.v. daily for five times) was “dose-dependent”. The “toxic effects on resting T-cells or NK-cells” value ([3]; BMMNC samples from MM or PCL patients, 24 hours) was “no toxic effects”, the “toxic effects on PMA-activated CD25+ T-cells” value ([3]; healthy individuals, 48 hours) was “no toxic effects” and the “concentration level for effects on Top1 activity” value [4] was “μM levels”. For the same molecule, the “concentration range for inhibition of cancer cell growth” value [5] was “high pM to low nM range”, the “hematopoietic and biochemical toxicities” value [6] was “very low” and the “hematopoietic and biochemical toxicities” value [7] was “very low”. The “activity on irinotecan and topotecan-resistant human tumors” value ([8]; animal models) was “effectively overcomes”, the tumor elimination ([8]; two-month experimental period) was “eliminate small and large volume human tumors without relapse in a high percentage of mice” and the “antitumor activity compared with FDA-approved anticancer drugs” value ([8]; versus irinotecan, topotecan, doxorubicin, 5-FU, gemcitabine, docetaxel, oxaliplatin, cytoxan, cisplatin) was “significantly better antitumor activity”. For the same molecule, the “activity on cisplatin-resistant pancreatic cancer cells” value [9] was “preferentially targets and kills” and the “spheroid formation of pancreatic cancer stem cells” value [9] was “inhibits”.
